# Experimental data: patent publication US20240398818A1, “Cardiosafe Antidiabetic Therapy” (priority 2018, published 2024)
# Tested on: adult patients with type 2 diabetes mellitus and with increased or high or very high CV risk evidenced by a history of established macrovascular or renal …
# Assay: Cardiovascular (Safety) and Renal Microvascular Outcome Trial (linagliptin versus placebo)
# Assay type: in vivo
# Conditions: for All-cause mortality, Hazard Ratio: linagliptin vs placebo
# Procedure: The effect of linagliptin on cardiovascular risk in adult patients with type 2 diabetes mellitus and with increased or high or very high CV risk evidenced by a history of established macrovascular or renal disease was evaluated in a Cardiovascular and Renal Microvascular Outcome Trial, a multi-center, multi-national, randomized, double-blind parallel group trial. The trial compared the risk of experiencing a major adverse cardiovascular event (MACE) between linagliptin and placebo when these were added to and used concomitantly with standard of care treatments for diabetes and other cardiovascular risk factors. The trial was event driven and patients were followed until at least 611 primary outcome events accrued.
# A total of 6979 patients were treated (linagliptin 5 mg=3494; placebo=3485) and followed for a median of 2.2 years (median time on treatment 1.9 years). Approximately 80% of the study population was Caucasian, 9% was Asian, and 6% was Black. The mean age was 66 years and 63% were male.
# The trial population included 1211 (17.4%) patients ≥75 years of age and 4348 (62.3%) patients with renal impairment. Approximately 19% of the population had eGFR ≥45 to <60 mL/min/1.73 m2, 28% of the population had eGFR ≥30 to <45 mL/min/1.73 m2 and 15% had eGFR <30 mL/min/1.73 m2. Overall, the use of diabetes medications was balanced across treatment groups (metformin 54%, sulfonylurea 32%, and insulin 57%). The use of medications to reduce cardiovascular risk was also balanced (aspirin 62%, statins 72%, ACE inhibitors or ARBs 81%, beta blockers 60%, and calcium channel blockers 41%).
# The primary endpoint in the Cardiovascular and Renal Microvascular Outcome Trial was the time to first occurrence of three point (3P) MACE. A major adverse cardiac event was defined as a cardiovascular death or a nonfatal myocardial infarction (MI) or a nonfatal stroke. The statistical analysis plan tested for non-inferiority for the occurrence of (3P) MACE. The secondary endpoint was a renal composite, defined as renal death or sustained end stage renal disease or sustained decrease of 40% or more in eGFR.
# The microvascular endpoint was defined as the composite of renal death, sustained ESRD, sustained decrease of ≥50% in eGFR, albuminuria progression, use of retinal photocoagulation or intravitreal injections of an anti-VEGF therapy for diabetic retinopathy or vitreous hemorrhage or diabetes-related-blindness. The estimated hazard ratio for time to first occurrence for the composite microvascular endpoint was 0.86 (95% CI 0.78, 0.95) for linagliptin versus placebo; mainly driven by albuminuria progression.
# People with type 2 diabetes (T2D) with concomitant chronic kidney disease (CKD) and cardiovascular (CV) disease are at increased risk for recurrent CV events and hypoglycemia. Treatment of these individuals is clinically challenging, where the evidence-base for safety and efficacy of glucose lowering drugs is scarce, in particular in GFR categories G3b (eGFR 30-44 ml/min/1.73 m2), G4 (eGFR <30) and G5 (eGFR <15). We analyzed baseline characteristics and effects on CV and kidney outcomes with the DPP-4 inhibitor linagliptin (LINA) vs. placebo (PBO), across GFR categories in the Cardiovascular and Renal Microvascular Outcome Trial. People with T2D and either i) UACR >30 mg/g with concomitant CV disease, or ii) eGFR <45 ml/min/1.73 m^2 regardless of UACR, or eGFR ≥45-75 mL/min/1.73 m^2 and UACR >200 mg/g, were randomized to LINA 5 mg or placebo (PBO) q.d. in a double-blind fashion. The primary outcome was first occurrence of CV death, non-fatal myocardial infarction, or non-fatal stroke (3P-MACE), with an adjudicated secondary composite outcome of ESKD, renal death, or sustained ≥40% decrease in eGFR from baseline. Other adjudicated outcomes included hospitalized heart failure (hHF) and the 3P-MACE components. Subgroup-effects across GFR categories (G≤2, G3a, G3b and G≥4) were also assessed. […]
# [1] = LINA vs PBO, across all GFR categories
# [2] = linagliptin relative to placebo, listed as linagliptin
structure (smiles),measurement,setting,value
"CC#CCn1c(N2CCC[C@@H](N)C2)nc2c1c(=O)n(Cc1nc(C)c3ccccc3n1)c(=O)n2C [Linagliptin, 1-[(4-methyl-quinazolin-2-yl)methyl]-3-methyl-7-(2-butyn-1-yl)-8-(3-(R)-amino-piperidin-1-yl)-xanthine]",HbA1c (in words),[1],reduced significantly
same,risk for hypoglycemia (in words),[1],without increased risk
same,"Progression of albuminuria category, patients with event / patients analysed",in vivo,763/2162
same,risk of HHF regardless of baseline renal function (in words),in vivo,did not affect
same,"Hospitalization for heart failure, Hazard Ratio",linagliptin relative to placebo,0.90
same,"Secondary renal composite, Hazard Ratio","linagliptin relative to placebo, listed as LINA",1.04
same,"3P-MACE, Hazard Ratio","linagliptin relative to placebo, listed as TRADJENTA",1.02
same,"3P-MACE, Hazard Ratio",[2],1.02
same,"Secondary renal composite, Hazard Ratio",[2],1.04
same,"albuminuria progression (normo- to micro-/macroalbuminuria, or micro- to macroalbuminuria), hazard ratio",linagliptin versus placebo,0.86
same,"composite microvascular endpoint, time to first occurrence, hazard ratio","linagliptin versus placebo, mainly driven by albuminuria progression",0.86
same,"All-cause mortality, Hazard Ratio",,0.98
same,"All-cause mortality, Hazard Ratio",listed as TRADJENTA,0.98
same,"All-cause mortality, Hazard Ratio",listed as linagliptin,0.98
same,"3P-MACE, Incidence Rate per 1000 PY",median follow-up 2.2 years,57.7 per 1000 PY
same,"3P-MACE, Subjects (%)",median follow-up 2.2 years,(12.4) %
same,"All-cause mortality, Incidence Rate per 1000 PY",median follow-up 2.2 years,46.9 per 1000 PY
same,"All-cause mortality, Subjects (%)",median follow-up 2.2 years,(10.5) %
same,"Hospitalization for heart failure, Incidence Rate per 1000 PY",median follow-up 2.2 years,27.7 per 1000 PY
same,"Hospitalization for heart failure, Number of Subjects",median follow-up 2.2 years,209
same,"Hospitalization for heart failure, Subjects (%)",median follow-up 2.2 years,(6.0) %
same,"Secondary renal composite (renal death, ESRD, 40% sustained decrease in eGFR), Number of Subjects",median follow-up 2.2 years,327
same,"Secondary renal composite, Incidence Rate per 1000 PY",median follow-up 2.2 years,48.9 per 1000 PY
same,"Composite of first event of CV death, non-fatal MI, or non-fatal stroke (3P-MACE), Number of Subjects","median follow-up 2.2 years, added to standard of care",434
same,"All-cause mortality, Subjects (%)","median follow-up 2.2 years, listed as TRADJENTA",(10.5%)
same,"Hospitalization for heart failure, Subjects (%)","median follow-up 2.2 years, listed as linagliptin",6.0%
